Counter-ions that a name gives are not always drawn.
| SMILES | melting point [°C] |
| --- | --- |
| COc1ccc(CNc2nc(CCC(=O)O)nc3sc4c(c23)CCCC4)cc1Cl (as salt: salt) [Example 2, 3-[4-(3-chloro-4-methoxybenzylamino)-5,6,7,8-tetrahydro-[1]-benzothieno[2,3-d)pyrimidin-2-yl)propionic acid] | 135 |
| COc1ccc(CNc2nc(-c3ccc(C(=O)O)cc3)nc3sc4ccccc4c23)cc1Cl (as salt: salt) [Example 3, 4-[4-(3-chloro-4-methoxybenzylamino)-[1]-benzothieno[2,3-d]-pyrimidin-2-yl]benzoic acid] | 189 to 190 |
| CCCc1nn(C)c2c(NCc3ccc(OC)c(Cl)c3)nc(-c3ccc(C(=O)O)cc3)nc12 (as salt: salt) [Example 3, 4-[7-(3-chloro-4-methoxybenzylamino]-methyl-3-propyl-1H-pyrazolo-[4,3-d]pyrimidin-5-yl]benzoic acid] | 139 |
| COc1ccc(CNc2nc(CCC(=O)O)nc3sc4c(c23)CCCC4)cc1Cl [Example 2, 3-[4-(3-chloro-4-methoxybenzylamino)-5,6,7,8-tetrahydro-[1]-benzothieno[2,3-d)pyrimidin-2-yl)propionic acid] | 229 |
| CCCc1nn(C)c2c(NCc3ccc(OC)c(Cl)c3)nc(CCC(=O)O)nc12 [Example 2, 3-[7-(3-chloro-4-methoxybenzylamino)-1-methyl-3-propyl-1H-pyrazolo-[4,3-d]pyrimidin-5-yl]propionic acid] | 178 |

Reference: patent publication US20040063731A1, “Pharmaceutical formulation comprising pyrazolo[4,3-d]pyrimidines and endothelin receptor antagonists or thienopyrimidines and endothelin receptor antagonists” (priority 2001, published 2004)
